For 21 compounds, IC50 and EC50 results are on record in ChEMBL document CHEMBL1153294, “The use of oxadiazole and triazole substituted naphthyridines as HIV-1 integrase inhibitors. Part 1: Establishing the pharmacophore” (Bioorg Med Chem Lett, 2009).

Bounds are passed on as bounds.

Test [1] has as its target Human immunodeficiency virus type 1 integrase (Human immunodeficiency virus 1, UniProt Q7ZJM1). The experiment in a line: Inhibition of HIV1 recombinant integrase strand transfer activity.
The subject of test [2] is Human immunodeficiency virus. The test is described as follows: Antiviral activity against HIV by pseudo-type HIV assay. The test is classed as functional, organism-based. The note with it: Human immunodeficiency virus 1.

Human immunodeficiency virus type 1 integrase, sequence (Q7ZJM1 whole entry): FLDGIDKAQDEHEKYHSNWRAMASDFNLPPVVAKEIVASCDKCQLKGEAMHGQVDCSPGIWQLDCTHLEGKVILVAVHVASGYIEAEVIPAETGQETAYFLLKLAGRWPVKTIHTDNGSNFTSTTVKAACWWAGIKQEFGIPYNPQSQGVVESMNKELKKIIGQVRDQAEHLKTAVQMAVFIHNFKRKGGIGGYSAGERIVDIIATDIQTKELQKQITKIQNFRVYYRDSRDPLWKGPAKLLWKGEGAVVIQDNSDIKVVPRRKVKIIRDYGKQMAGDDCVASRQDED

With `O=C(NCc1ccc(F)cc1)c1ncc2cccnc2c1O`, in test [1], the concentration for half-maximal inhibition (IC50) was determined as 12 nM. This compound gave an EC50 in test [2] of 75 nM.
`O=C(NCc1ccc(F)cc1)c1nc(N2CCCCS2(=O)=O)c2cccnc2c1O`: the concentration for a half-maximal effect (EC50) in test [2] came out at 2 nM.
Take `O=S1(=O)CCCCN1c1nc(-c2nnc(Cc3ccc(F)cc3)[nH]2)c(O)c2ncccc12`: in test [1], the 50% inhibitory concentration (IC50) was 11 nM. This compound also showed an EC50 in test [2] of 240 nM.
As for `Cn1nc(Cc2ccc(F)cc2)nc1-c1ncc2cccnc2c1O`, the half-maximal inhibitory concentration (IC50) in test [1] is above 500000 nM.
Regarding `O=S1(=O)CCCCN1c1nc(-c2noc(Cc3ccc(F)cc3)n2)c(O)c2ncccc12`, the 50% inhibitory concentration (IC50) in test [1] was above 100000 nM.
Consider `O=S1(=O)CCCCN1c1nc(-c2nnc(Cc3ccc(F)cc3)o2)c(O)c2ncccc12`, for which, in test [1], the IC50 was determined as 2 nM. In test [2], the EC50 came out at 13 nM.
The corresponding values for `Oc1c(-c2noc(Cc3ccc(F)cc3)n2)ncc2cccnc12` are 130 nM and 220 nM.
For the compound `Oc1c(-c2nnc(Cc3ccccc3)[nH]2)ncc2cccnc12`, the IC50 in test [1] was 360 nM. Also, in test [2], the concentration giving a half-maximal response (EC50) is 8700 nM.
In the same order, the values of `Oc1c(-c2nnc(Cc3ccncc3)[nH]2)ncc2cccnc12` are 4600 nM and above 35000 nM.
In the same order, the values of `Oc1c(-c2nnc(Cc3cccc(Cl)c3)[nH]2)ncc2cccnc12` are 1030 nM and 1000 nM.
In the same order, the values of `COc1cccc(Cc2nnc(-c3ncc4cccnc4c3O)[nH]2)c1` are 2800 nM and above 35000 nM.
In the case of `Oc1c(-c2nnc(CCc3ccccc3)[nH]2)ncc2cccnc12`, in test [1], the 50% inhibitory concentration (IC50) was 2400 nM. Further, the concentration for a half-maximal effect (EC50) in test [2] is above 20000 nM.
In the same order, the values of `Oc1c(-c2nnc(Cc3ccc(F)cc3)o2)ncc2cccnc12` are 42 nM and 130 nM.
Consider `Cn1nc(-c2ncc3cccnc3c2O)nc1Cc1ccc(F)cc1`, for which, in test [1], the IC50 was 7900 nM.
As to `Oc1c(-c2noc(-c3ccccc3)n2)ncc2cccnc12`, the concentration for half-maximal inhibition (IC50) in test [1] is above 100000 nM.
As to `Oc1c(-c2noc(Cc3ccccc3)n2)ncc2cccnc12`, the IC50 in test [1] worked out at 950 nM. Besides, the response in test [2] was half-maximal at 1900 nM (EC50).
The corresponding values for `Oc1c(-c2nnc(Cc3ccc(F)cc3)[nH]2)ncc2cccnc12` are 130 nM and 320 nM.
On to `Oc1c(-c2nnc(Cc3cccnc3)[nH]2)ncc2cccnc12`, for which the IC50 in test [1] came out at 3500 nM. Besides, the EC50 in test [2] is 6400 nM.
In the same order, the values of `Oc1c(-c2nnc(Cc3ccc(Cl)cc3)[nH]2)ncc2cccnc12` are 640 nM and 1000 nM.
The corresponding values for `COc1ccc(Cc2nnc(-c3ncc4cccnc4c3O)[nH]2)cc1OC` are 6300 nM and above 35000 nM.
As for `Oc1c(-c2nnc(Cc3ccccc3)o2)ncc2cccnc12`, the IC50 in test [1] is 130 nM. This compound had an EC50 in test [2] of 420 nM.

In general, IC50 refers to the concentration needed to halve the response being measured. Usually EC50 stands for the concentration needed to bring the measured effect to its halfway point. A higher EC50 goes with weaker potency.
